Measured values from patent US20080033007A1, “Substituted Tetrahydroisoquinoline Compounds for Cancer Therapy” (priority 2002, published 2008).
“Also recorded” adds a separate entry of the source.

What was measured:
[1] = tested on: primary cultured cortical astrocytes; assay: effect on primary cultured cortical astrocytes (Example 5); conditions: at EC50 concentrations for the C6 gliomas
[2] = tested on: MCF7, A549, HeLa, LnCap cancer cell lines; assay: anti-proliferative activity against cancer cell lines, 96 hr; type: cell-based; conditions: every type of cancer tested: brain, breast, lung epithelial, cervical, prostate cancer cell lines
Protocol: Cell proliferation was measured and EC50 values were estimated.

C6 glioma = assay: in vivo rat model: C6 glioma cells injected into brain, treatment by osmotic mini pump; conditions: rat hippocampus, 7 days treatment
Text: Approximately 5×10^4 C6 glioma cells were transplanted into a rat brain via a cannula followed by treatment for seven days. Tumor cells are depicted by staining for beta galactosidase.
FIG. 2 is a graph depicting the maximum extent of tumor in a single section.
A rat model system was developed to examine the in vivo efficacy of the compounds of the present invention.
The first step was to produce a cell line with a marker gene. A rat C6 glioma cell line was selected and stably transfected with a β-galactosidase construct. These cells were cultured and prepared for injection into the brain of adult Sprague-Dawley rats to simulate in vivo tumor development.
The animals were anesthetized and a cannula was placed into the brain. Approximately 5×10^4 glioma cells were injected through the cannula. […] The mini osmotic pump delivered 1 μl/hr for 7 days. With the tubing used to connect the pump, there was approximately a 10 hour delay for the treatment to reach the brain.
The section with the largest extent of tumor visible in all of the cases was identified and the cross-sectional area of the tumor was measured.

C6 rat glioma = assay: differential culture cytotoxicity assay, C6 glioma; conditions: comparison of IC50 values
Protocol: Normal cultured rat astrocytes and C6 rat glioma were used as a differential screen for a variety of 1,2,3,4-tetrahydroisoquinoline derivatives. […] To explore structure activity relationships (SAR) a number of 1,2,3,4-tetrahydroisoquinolines 2, 4, 5, 7, and 8 were synthesized and tested for antiglioma activity.
The astrocytes primary culture was derived from neonatal (4-8 days postpartum) rat pups as described by Geisert et al. The primary cultures were prepared as per McCarthy et al. Briefly, the rat pups were anesthetized on ice, decapitated, and the brains were removed. The cerebral cortex was removed, stripped of the meninges, and cut into small pieces of approximately 1 mm^2. The tissue was placed in 0.1% trypsin for 15 min and gently pipetted to produce a single cell suspension. The cell suspension was then rinsed in media and transferred to culture flasks. […]
The experimental treatment was the incubation of the cells with test compound for 96 h at 37° C., 5% CO2. The cells were fixed with 4% formaldehyde, stained with 0.1% cresylecth violet stain, and quantitated as per Wagner et a. […]
The cytotoxic character of each compound was reported as the percent survival, calculated as the average A560 for treated cells divided by A560 of untreated (negative control) cells, and expressed as a percentage. […]

[3] = animal toxicity test, delivery into striatum by mini-osmotic pump; type: in vivo, rat; conditions: 5 μM into striatum, five days, Nissl stain; hydrochloride
Protocol: The drug was delivered directly into the striatum of rats at a concentration of 5 μM, two times greater than the estimated EC50 value. […] The rats were sacrificed, brain sections were investigated for any major tissue change in the brain. Brains were fixed in 4% paraformaldehyde, cut in sections and stained by the Nissl method.
The drug was administered into the striatum of rats at 5 μM, which is approximately two times greater than the estimated EC5) value. […] The rats were sacrificed and brain sections were investigated for any major tissue change in the brain. Brains were fixed in 4% paraformaldehyde, cut in sections, and stained by the Nissl method.

With `Cl.Oc1cc2c(cc1O)C(Cc1ccc(-c3ccccc3)cc1)NCC2` (racemic) [MMGS-155] the destruction to astrocytes [1] was “only minimal destruction to astrocytes”, the “LD50, killing of cancer cells in culture” value [2] was “approximately 3 μM” and the “pathology of normal brain tissue beneath treatment cannula” value (C6 glioma) was “Limited pathology”. For the same compound, the “cytotoxic activity relative to another compound” value (C6 rat glioma; listed as 1, hydrochloride) was “more potent; also recorded: at least two-fold higher potency”, the “cytotoxic activity relative to another compound” value (C6 rat glioma; listed as 1-(biphenyl-4-ylmethyl)-1,2,3,4-tetrahydroisoquinoline-6,7-diol, hydrochloride) was “increased relative potency” and the “brain damage / tissue change” value [3] was “did not show any sign of brain damage; also recorded: brain tissue appears normal”.
